Assay results published in patent publication US20260158177A1, “COMPOUNDS SPECIFIC TO GRANZYME B AND USES THEREOF” (CYTOSITE BIOPHARMA INC., priority 2021, published 2026).
Numbered stars: 1 amine (or outer) side, 2 acyl side, 3 side chain; on linkers, the order of the positions; unused ones are H or OH. Square brackets hold non-standard residues; d marks the D form. Peptide text beside a SMILES is read from it. * marks the point of attachment. X2 = O=C1CN2CCN(CCN(CC3CCN(CC(=O)*)CC3)CC2)CC(=O)[O][Al]([F])[O]1; Haic = O=C1[C@@H](N[*:1])CCc2cccc3c2N1[C@H](C(=O)[*:2])C3; NH(5-HO-2-oxo-oxolan-4-yl) = O=C1CC(N*)C(O)O1

What follows are compounds tested against T1, human granzyme B (Homo sapiens, UniProt P10144) (assay: Competitive binding assay of human granzyme B with Compound ^18F-21-Al radioligand). Conditions: competition with 20 nM Compound ^18F-21-Al, human lymphocyte GZB, 37° C., 90 minutes.
T1 construct: from tissue; host or cells: human lymphocytes
T1 sequence (P10144 21-247): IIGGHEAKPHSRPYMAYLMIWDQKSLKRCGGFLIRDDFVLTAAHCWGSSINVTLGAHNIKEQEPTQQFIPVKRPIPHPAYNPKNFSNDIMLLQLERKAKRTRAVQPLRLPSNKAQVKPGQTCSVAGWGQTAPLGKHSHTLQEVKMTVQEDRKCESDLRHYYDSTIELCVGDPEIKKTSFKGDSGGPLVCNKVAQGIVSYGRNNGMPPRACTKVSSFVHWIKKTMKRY
Experimental: Purpose: To perform competitive binding assays with human granzyme B using Compound ^18F-21-Al to determine IC50 values of potential granzyme B ligands
Initial Plate Preparation (including total binding and non-specific binding): • 1. 78 μL of reaction buffer, as described above, is added to each well in a 96 well plate • 2. For wells used to examine total binding (defined as the binding of the radioligand in the absence of competitors), 2 μL of DMSO is added to give 1% final DMSO concentration for all wells • 3. For wells used to examine non-specific binding (defined as the binding of the radioligand in the presence of 10 μM 21), 2 μL of 1 mM Compound 21 is added to give a final concentration of 10 μM
• 1. Granzyme B (GZB, human lymphocyte) is diluted to 0.5 μg/mL using reaction buffer as described above • 2. 100 μL of 0.5 μg/mL diluted human GzB is added to each well, giving 50 ng per well and a final concentration of 0.25 μg/mL
• 1. DMSO or water is added to the respective compound vial to make 1 mM compound stock solution • 2. 1 mM compound stock solution is serially diluted by ½ log (3.16 fold) by adding 18.5 μL of compound stock to 40 μL of DMSO, mixing by pipetting up and down, and transferring 18.5 μL of the mixture to 40 μL of DMSO. This process is repeated to create 10 dilution points for test compounds. • 3. For wells used to examine ligand binding competition, 2 μL of each dilution is dispensed into the 96 well plates prepared as described above, giving a further dilution of 1/100.
• 1. 200 nM of Compound ^18F-21-Al (10× radioligand stock) is prepared in reaction buffer, aiming for approximately 2 million CPM per 20 μL of solution (input). • 2. 20 μL of radioligand stock is dispensed into each well to give a final concentration per well of 20 nM.
• 1. All 96 wells should have a final volume of 200 μL, and the assay plates are incubated at 37° C. for 90 minutes. • 2. All samples from the assay plates are transferred to MultiScreenHTS FB plates that have been presoaked in PBS buffer, pH 7.4, and filtered using a vacuum manifold. An additional 150 μL of PBS buffer is added to each well in the assay plates and combined to ensure transfer of any remaining samples • 3. MultiScreenHTS FB plates are washed 3× with 150 μL of PBS buffer. • 4. All filters are separated and transferred to individual tubes using Multiscreen punch tips and the Millipore multiple punch apparatus • 5. The sample set is analyzed using the Wizard 2480 automatic gamma-counter [Perkin Elmer] through a [^18F]-specific profile. Values are reported as decay-corrected counts per minute (CPM). • 6. Resulting CPM values are normalized and converted to % inhibition by the following equation:
[formula] • *the total bound fraction is typically less than 10% of the added radioligand under such assay conditions. • Resulting % inhibition values were plotted using the software GraphPad Prism 8.4.3 using the One site—Fit log IC50 equation to determine the IC50 value for each ligand.
[formula] • Y=% Inhibition • X=Log concentration of the cold competing ligand (M) • A=minimum Y (0%) • B=maximum Y (100%) • Log IC50=Log concentration of cold competing ligand (M) at half-way between minimum and maximum Y

In order of falling IC50:
1. CC[C@H](C)[C@H](NC(=O)CNC(=O)CNC(=O)[C@H](CCC(=O)O)NC(=O)CN1CCC(CN2CCN3CCN(CC2)CC(=O)[O][Al]([F])[O]C(=O)C3)CC1)C(=O)N[C@H]1CCc2cccc3c2N(C1=O)[C@H](C(=O)NC1CC(=O)OC1O)C3 (stereo partly drawn) [Compound 2-Al, 2,2′-(7-((1-((4S,13S,14S)-4-(2-carboxyethyl)-13-(((3S,6S)-6-((2-hydroxy-5-oxotetrahydrofuran-3-yl)carbamoyl)-4-oxo-1,2,3,4,6,7-hexahydroazepino[3,2,1-hi]indol-3-yl)carbamoyl)-14-methyl-2,5,8,11-tetraoxo-3,6,9,12-tetraazahexadecyl)piperidin-4-yl)methyl)-1,4,7-triazonane-1,4-diyl)diacetic acid aluminum fluoride complex (1:1)] (X2-EGGI[Haic]-{NH(5-HO-2-oxo-oxolan-4-yl)})  7.5 nM
2. CC[C@H](C)[C@H](NC(=O)CCNC(=O)[C@@H](CCC(=O)O)NC(=O)CCNC(=O)CN1CCC(CN2CCN3CCN(CC2)CC(=O)[O][Al]([F])[O]C(=O)C3)CC1)C(=O)N[C@H]1CCc2cccc3c2N(C1=O)[C@H](C(=O)NC1CC(=O)OC1O)C3 (stereo partly drawn) [Compound 7-Al, 2,2′-(7-((1-((8R,15S,16S)-8-(2-carboxyethyl)-15-(((3S,6S)-6-((2-hydroxy-5-oxotetrahydrofuran-3-yl)carbamoyl)-4-oxo-1,2,3,4,6,7-hexahydroazepino[3,2,1-hi]indol-3-yl)carbamoyl)-16-methyl-2,6,9,13-tetraoxo-3,7,10,14-tetraazaoctadecyl)piperidin-4-yl)methyl)-1,4,7-triazonane-1,4-diyl)diacetic acid, aluminum fluoride complex (1:1)]  6.7 nM
3. CC[C@H](C)[C@H](NC(=O)CCNC(=O)CN(CC(=O)O)C(=O)CCNC(=O)CN1CCC(CN2CCN3CCN(CC2)CC(=O)[O][Al]([F])[O]C(=O)C3)CC1)C(=O)N[C@H]1CCc2cccc3c2N(C1=O)[C@H](C(=O)NC1CC(=O)OC1O)C3 (stereo partly drawn) [Compound 3-Al, 2,2′-(7-((1-((15S,16S)-7-(carboxymethyl)-15-(((3S,6S)-6-((2-hydroxy-5-oxotetrahydrofuran-3-yl)carbamoyl)-4-oxo-1,2,3,4,6,7-hexahydroazepino[3,2,1-hi]indol-3-yl)carbamoyl)-16-methyl-2,6,9,13-tetraoxo-3,7,10,14-tetraazaoctadecyl)piperidin-4-yl)methyl)-1,4,7-triazonane-1,4-diyl)diacetic acid, aluminum fluoride complex (1:1)]  4.7 nM
4. CC[C@H](C)[C@H](NC(=O)CCNC(=O)CCNC(=O)[C@@H](CCC(=O)O)NC(=O)CN1CCN(C(=O)CN2CCN3CCN(CC2)CC(=O)[O][Al]([F])[O]C(=O)C3)CC1)C(=O)N[C@H]1CCc2cccc3c2N(C1=O)[C@H](C(=O)NC1CC(=O)OC1O)C3 (stereo partly drawn) [Compound 12-Al, 2,2′-(7-(2-(4-((4R,15S,16S)-4-(2-carboxyethyl)-15-(((3S,6S)-6-((2-hydroxy-5-oxotetrahydrofuran-3-yl)carbamoyl)-4-oxo-1,2,3,4,6,7-hexahydroazepino[3,2,1-hi]indol-3-yl)carbamoyl)-16-methyl-2,5,9,13-tetraoxo-3,6,10,14-tetraazaoctadecyl)piperazin-1-yl)-2-oxoethyl)-1,4,7-triazonane-1,4-diyl)diacetic acid, aluminum fluoride complex (1:1)]  4.2 nM
5. CC[C@H](C)[C@H](NC(=O)COCCNC(=O)[C@@H](CCC(=O)O)NC(=O)[C@@H](CCC(=O)O)NC(=O)CN1CCN(C(=O)CN2CCN3CCN(CC2)CC(=O)[O][Al]([F])[O]C(=O)C3)CC1)C(=O)N[C@H]1CCc2cccc3c2N(C1=O)[C@H](C(=O)NC1CC(=O)OC1O)C3 (stereo partly drawn) [Compound 10-Al, 2,2′-(7-(2-(4-((4R,7R,16S,17S)-4,7-bis(2-carboxyethyl)-16-(((3S,6S)-6-((2-hydroxy-5-oxotetrahydrofuran-3-yl)carbamoyl)-4-oxo-1,2,3,4,6,7-hexahydroazepino[3,2,1-hi]indol-3-yl)carbamoyl)-17-methyl-2,5,8,14-tetraoxo-12-oxa-3,6,9,15-tetraazanonadecyl)piperazin-1-yl)-2-oxoethyl)-1,4,7-triazonane-1,4-diyl)diacetic acid, aluminum fluoride complex (1:1)]  3.6 nM
6. CC[C@H](C)[C@H](NC(=O)COCCNC(=O)[C@@H](CCC(=O)O)NC(=O)[C@@H](CCC(=O)O)NC(=O)CN1CCC(CN2CCN3CCN(CC2)CC(=O)[O][Al]([F])[O]C(=O)C3)CC1)C(=O)N[C@H]1CCc2cccc3c2N(C1=O)[C@H](C(=O)NC1CC(=O)OC1O)C3 (stereo partly drawn) [Compound 4-Al, 2,2′-(7-((1-((4R,7R,16S,17S)-4,7-bis(2-carboxyethyl)-16-(((3S,6S)-6-((2-hydroxy-5-oxotetrahydrofuran-3-yl)carbamoyl)-4-oxo-1,2,3,4,6,7-hexahydroazepino[3,2,1-hi]indol-3-yl)carbamoyl)-17-methyl-2,5,8,14-tetraoxo-12-oxa-3,6,9,15-tetraazanonadecyl)piperidin-4-yl)methyl)-1,4,7-triazonane-1,4-diyl)diacetic acid, aluminum fluoride complex (1:1)]  2.8 nM
7. CC[C@H](C)[C@H](NC(=O)CC[C@H](NC(=O)CN1CCN(C(=O)CN2CCN3CCN(CC2)CC(=O)[O][Al]([F])[O]C(=O)C3)CC1)C(=O)O)C(=O)N[C@H]1CCc2cccc3c2N(C1=O)[C@H](C(=O)NC1CC(=O)OC1O)C3 (stereo partly drawn) [Compound 17-Al, 2,2′-(7-(2-(4-(2-(((1S)-1-carboxy-4-(((2S,3S)-1-(((3S,6S)-6-((2-hydroxy-5-oxotetrahydrofuran-3-yl)carbamoyl)-4-oxo-1,2,3,4,6,7-hexahydroazepino[3,2,1-hi]indol-3-yl)amino)-3-methyl-1-oxopentan-2-yl)amino)-4-oxobutyl)amino)-2-oxoethyl)piperazin-1-yl)-2-oxoethyl)-1,4,7-triazonane-1,4-diyl)diacetic acid, aluminum fluoride complex (1:1)]  2.7 nM
8. CC[C@H](C)[C@H](NC(=O)COCCOCCNC(=O)COCCOCCNC(=O)[C@@H](CCC(=O)O)NC(=O)CN1CCN(C(=O)CN2CCN3CCN(CC2)CC(=O)[O][Al]([F])[O]C(=O)C3)CC1)C(=O)N[C@H]1CCc2cccc3c2N(C1=O)[C@H](C(=O)NC1CC(=O)OC1O)C3 (stereo partly drawn) [Compound 11-Al, 2,2′-(7-(2-(4-((4R,25S,26S)-4-(2-carboxyethyl)-25-(((3S,6S)-6-((2-hydroxy-5-oxotetrahydrofuran-3-yl)carbamoyl)-4-oxo-1,2,3,4,6,7-hexahydroazepino[3,2,1-hi]indol-3-yl)carbamoyl)-26-methyl-2,5,14,23-tetraoxo-9,12,18,21-tetraoxa-3,6,15,24-tetraazaoctacosyl)piperazin-1-yl)-2-oxoethyl)-1,4,7-triazonane-1,4-diyl)diacetic acid, aluminum fluoride complex (1:1)]  2.4 nM
